Read-outs that look alike come from different tables or passages of the source.
Columns and labels:
[1] = Oral pharmacokinetic study in mice, plasma LC-MS/MS; format: in vivo; settings: 10 mpk, female Balb C mice
Protocol: Female Balb C mice 4 per group after overnight fasting were dosed orally (via gavage) with compound 1 in 5% NMP in normal saline (10 ml/kg). Blood was collected by serial bleeding at 0.16 hr, 0.5 hr, 1 hr, 2 hr, 4 hr, 6 hr, 8 hr in heparinized tubes. Blood samples were centrifuged at 10,000 rpm for 5 min. at 4° C. to obtain the plasma, which were aspirated into separate labeled tubes and stored at −80° C. 400 ng/ml of standard in acetonitrile was used as the drug extraction solvent for extracting drug from plasma. Extraction solvent was added to plasma was vortexed and shaken on shaker for 10 minutes, centrifuged at 10,000 rpm for 10 minutes at 4° C. Supernatant was kept for analysis.
Acetonitrile and plasma calibration curves were generated and percentage of drug recovery from plasma determined. Quantitative analysis was done by liquid chromatography tandem mass spectrometer (API3200 LC-MS/MS). Cmax, Tmax, AUC and t1/2 were calculated using Graph Pad PRISM version 5.04 and the results were depicted in Table 3.

[2] = Effect on triglyceride level in animals on High Fat Diet; format: in vivo, mice; settings: 15 days
Protocol: Animals were placed on High Fat Diet (HFD) until they gain more than 20% of Body weight compared with animals on standard chow and reached glycemia levels ≥200 mg/dL (usually 4-6 weeks). Animals were randomly assigned to Control (obese group) receiving vehicle only (by gavage): n=12; (+)-Epicatechin—orally by gavage: n=10: (−)-Epicatechin—orally by gavage: n=10.
All animals were treated for 15 days and continued under HFD. The results are presented at FIG. 3.

[3] = tested on: Electron Transport Chain Complex IV; experiment: increase of the expression of Electron Transport Chain IV (ETC IV); format: cell-based; settings: for EC50: increase of expression of ETC IV, read-out: EC50 on mitochondrial ETC complexes: Electron Transport Chain Complex IV
Excerpt: The present invention discloses a remarkable range of biological activity across the two enantiomers of epicatechin, something heretofore not described for flavonoids as a class. The enantiomer of (−)-epicatechin is (+)-epicatechin. […]

AMP kinase = experiment: cell-based fluorescent ELISA of AMP kinase phosphorylation status in cultured cells; settings: AMP kinase phosphorylation (pAMPK) in cultured cells
Protocol: The compounds of the present invention were tested for their activity on AMP kinase. The activity on AMP kinase was evaluated by quantitative fluorescent immunoenzymatic assay of AMP kinase phosphorylation status in cultured cells. The 5-AMP-activated protein kinase (AMP kinase) is a key sensor of intracellular energy balance. AMP kinase is activated in response to an increase in the AMP/ATP ratio which can be caused by a number of factors such as muscle contraction, starvation, or hypoxia. AMP kinase is a heterotrimeric protein complex comprising of (63 kDa),—(38 kDa) and—•(38 kDa) subunits. For each subunit, isoforms have been identified (1, 2, 1, 2, 1, 2, 3) which theoretically allow the formation of 12 different proteins. The -subunit contains a serine/threonine kinase domain and the regulatory subunits contain binding sites for AMP and ATP (-subunit) and for glycogen (-subunit). AMP kinase is activated by phosphorylation on Thr-172 within the catalytic domain. AMP binding results in a 2 to 5-fold increase in AMP kinase activity compared to the basal level. […]
BioAssay Systems' cell-based ELISA measure phosphorylated AMP kinase in whole cells and normalizes the signal to the total protein content. […] AMP kinase phosphorylation (pAMPK) is measured using a fluorescent ELISA followed by total protein measurement in each well.

| SMILES | AUC [1] [µM·h] | Elimination t½ [1] [h] | improvement over (−)-epicatechin in dose giving the same triglyceride reduction ([2]; 0.003 vs 0.1 mg/Kg/day, oral) [fold] | reduction in triglyceride levels ([2]; (+)-epicatechin 0.003 mg/Kg/day vs (−)-epicatechin 0.1 mg/Kg/day, orally by gavage, FIG. 3 triglycerides content of livers) | fold more potent than (−)-epicatechin on increase of the expression of ETC IV ([3]; (+)-epicatechin versus (−)-epicatechin) | EC50 [3] [µM] | concentration at which AMPK activity is exhibited (AMP kinase) [nM] | AUC ([1]; mouse, 10 mg/kg, read-out: AUC) [µM·h] | half-life ([1]; mouse, 10 mg/kg, read-out: Elimination t½ (converted)) [h] |
| --- | --- | --- | --- | --- | --- | --- | --- | --- | --- |
| Oc1cc(O)c2c(c1)O[C@@H](c1ccc(O)c(O)c1)[C@@H](O)C2 [(+)-Epicatechin] | 0.683 | 2.13 | > 30 | shows the same reduction in triglyceride levels as (−)-epicatechin | approximately 400 fold | 0.1 | – | – | – |
| Oc1cc(O)c2c(c1)O[C@H](c1ccc(O)c(O)c1)[C@H](O)C2 [(−)-Epicatechin, reference compound] | – | – | – | – | – | 40 | – | – | – |
| CCCCCCCC(=O)Oc1cc(O)cc2c1C[C@H](O)[C@H](c1ccc(O)c(O)c1)O2 [Compound 1001, (2S,3S)-2-(3,4-dihydroxyphenyl)-3,7-dihydroxychroman-5-yl octanoate] | – | – | – | – | – | – | 1 | 2.8 | 4.5 |

Reference: patent US10898465B2, “Utility of (+) epicatechin and their analogs” (Epirium Bio Inc., priority 2016, dated 2021)
